The text below walks through data of US10487093B2, “Heterocyclic compounds, in particular 2-oxo-4,4,5,5,6,6,7,7-octahydrobenzoxazole derivatives, and their use as antibacterial compounds” (priority 2016, dated 2019).

Experiment [1] has as its system Escherichia coli ATCC 25922. The experiment can be described thus: MIC, broth microdilution (CLSI) versus planktonic bacteria. Particulars: ATCC25922; Escherichia coli ATCC 25922; 16-20 h; mode of three independent experiments; read-out: MIC, Ec ATCC 25922. In kind it is cell-based. On the technique in general: In broth dilution the organism is exposed to a series of concentrations in liquid medium.

Experiment [2] has as its system Pseudomonas aeruginosa ATCC 27853. The description is as above. In kind it is cell-based. As to conditions: ATCC27853; Pseudomonas aeruginosa ATCC 27853; 16-20 h; mode of three independent experiments; read-out: MIC, Pa ATCC 27853.
Experiment [3] relates to Acinetobacter baumannii NCTC 13420. The experiment is described as above. In kind it is cell-based. As to conditions: NCTC13420; Acinetobacter baumannii NCTC 13420; 16-20 h; mode of three independent experiments; read-out: MIC, Ab NCTC 13420.
Experiment [4] concerns Enterobacter cloacae NCTC 13406. The experiment is described as above. In kind it is cell-based. As to conditions: NCTC13406; Enterobacter cloacae NCTC 13406; 16-20 h; mode of three independent experiments; read-out: MIC, Ecl NCTC 13406.
The subject of experiment [5] is Haemophilus influenzae ATCC 49247. The description is as above. The class given is cell-based. As to conditions: ATCC49247; Haemophilus influenzae ATCC 49247; 16-20 h; mode of three independent experiments; read-out: MIC, Hi ATCC 49247.
Experiment [6] relates to human hepatic cell line (HepG2 ATCC HB-8065). The experiment can be described thus: Human cell viability assay (CellTiter-Glo). As to conditions: Homo sapiens, HepG2, 24 h, read-out: IC50 (μg/mL) HepG2. (ATP-based viability assays read luminescence as a measure of living cells.)
In experiment [7] the test system is Staphylococcus aureus ATCC 29213. The experiment is described as follows: MIC, broth microdilution (CLSI) versus planktonic bacteria. The class given is cell-based. As to conditions: ATCC29213; Staphylococcus aureus ATCC 29213; 16-20 h; mode of three independent experiments; read-out: MIC, Sa ATCC 29213.
The test system of experiment [8] is Streptococcus pneumoniae ATCC 49619. Described as above. In kind it is cell-based. Particulars: ATCC49619; Streptococcus pneumoniae ATCC 49619; 16-20 h; mode of three independent experiments; read-out: MIC, Sp ATCC 49619.

Each structure is given as a SMILES string. In brackets after ≈: the same amount, converted by molar mass.

Turning to `O=C1COc2ccc(N3C(=O)O[C@@H]4C[C@@H](NCCn5c(=O)ccc6ncc(F)cc65)CC[C@@H]43)nc2N1` [Compound 28, 1-(2-{[(3aS,6S,7aR)-2-oxo-3-{3-oxo-2H,3H,4H-pyrido[3,2-b][1,4]oxazin-6-yl}-octahydro-1,3-benzoxazol-6-yl]amino}ethyl)-7-fluoro-1,2-dihydro-1,5-naphthyridin-2-one], the MIC in experiment [1] was less than 1 µg/mL; in experiment [2], 1 to 10 µg/mL (≈ 2.02 to 20.2 µM); in experiment [3], 1 to 10 µg/mL (≈ 2.02 to 20.2 µM); in experiment [4] it was 1 to 10 µg/mL (≈ 2.02 to 20.2 µM); in experiment [5], 1 to 10 µg/mL (≈ 2.02 to 20.2 µM); in experiment [7], less than 1 µg/mL. Further, the MIC in experiment [8] is less than 1 µg/mL. The IC50 in experiment [6] was greater than 100 µg/mL.

With `CN(C)CCOc1ccc2ccc(=O)n(CCN[C@@H]3CC[C@@H]4[C@@H](C3)OC(=O)N4c3ccc4c(n3)NC(=O)CO4)c2c1` [Compound 32, 1-(2-{[(3aR,6R,7aR)-2-oxo-3-{3-oxo-2H,3H,4H-pyrido[3,2-b][1,4]oxazin-6-yl}-octahydro-1,3-benzoxazol-6-yl]amino}ethyl)-7-[2-(dimethylamino)ethoxy]-1,2-dihydroquinolin-2-one], the MIC was 1 to 10 µg/mL (≈ 1.78 to 17.8 µM) in experiment [1]; 1 to 10 µg/mL (≈ 1.78 to 17.8 µM) in experiment [2]; greater than 100 µg/mL in experiment [3]; 10 to 100 µg/mL (≈ 17.8 to 178 µM) in experiment [4]; 10 to 100 µg/mL (≈ 17.8 to 178 µM) in experiment [5]; 1 to 10 µg/mL (≈ 1.78 to 17.8 µM) in experiment [7]. In addition, the MIC in experiment [8] was in the range of 1 to 10 µg/mL (≈ 1.78 to 17.8 µM). Moreover, the IC50 in experiment [6] is greater than 100 µg/mL.

In the case of `COc1ccc2ccc(=O)n(CCN[C@H]3CC[C@H]4[C@H](C3)OC(=O)N4c3ccc4c(n3)NC(=O)C(C)(C)O4)c2n1` [Compound 48, 1-(2-{[(3aS,6S,7aS)-3-{2,2-dimethyl-3-oxo-2H,3H,4H-pyrido[3,2-b][1,4]oxazin-6-yl}-2-oxo-octahydro-1,3-benzoxazol-6-yl]amino}ethyl)-7-methoxy-1,2-dihydro-1,8-naphthyridin-2-one], the MIC in experiment [1] is 1 to 10 µg/mL (≈ 1.87 to 18.7 µM); in experiment [2], 10 to 100 µg/mL (≈ 18.7 to 187 µM); in experiment [3] it was less than 1 µg/mL; in experiment [4] it was 10 to 100 µg/mL (≈ 18.7 to 187 µM); in experiment [5], 1 to 10 µg/mL (≈ 1.87 to 18.7 µM); in experiment [7], less than 1 µg/mL. Further, in experiment [8], the MIC was less than 1 µg/mL. In addition, the IC50 in experiment [6] was greater than 100 µg/mL.

As for `COc1ccc2ccc(=O)n(CCN[C@@H]3CC[C@@H]4[C@@H](C3)OC(=O)N4c3cc4c(nn3)OCCO4)c2n1` [Compound 49, 1-(2-{[(3aR,6R,7aR)-3-{6H,7H-[1,4]dioxino[2,3-c]pyridazin-3-yl}-2-oxo-octahydro-1,3-benzoxazol-6-yl]amino}ethyl)-7-methoxy-1,2-dihydro-1,8-naphthyridin-2-one], the MIC is 10 to 100 µg/mL (≈ 20.2 to 202 µM) in experiment [1]; 10 to 100 µg/mL (≈ 20.2 to 202 µM) in experiment [2]; 10 to 100 µg/mL (≈ 20.2 to 202 µM) in experiment [3]; greater than 100 µg/mL in experiment [4]; 10 to 100 µg/mL (≈ 20.2 to 202 µM) in experiment [5]; less than 1 µg/mL in experiment [7]. Also, in experiment [8], the MIC is less than 1 µg/mL. Moreover, the IC50 in experiment [6] is greater than 100 µg/mL.

Take `N#Cc1cnc2ccc(=O)n(CCN[C@@H]3CC[C@@H]4[C@@H](C3)OC(=O)N4c3ccc4c(n3)NC(=O)CO4)c2c1` [Compound 50, 5-(2-{[(3aR,6R,7aR)-2-oxo-3-{3-oxo-2H,3H,4H-pyrido[3,2-b][1,4]oxazin-6-yl}-octahydro-1,3-benzoxazol-6-yl]amino}ethyl)-6-oxo-5,6-dihydro-1,5-naphthyridine-3-carbonitrile]: the MIC in experiment [1] was less than 1 µg/mL; in experiment [2], less than 1 µg/mL; in experiment [3], 1 to 10 µg/mL (≈ 1.99 to 19.9 µM); in experiment [4], 1 to 10 µg/mL (≈ 1.99 to 19.9 µM); in experiment [5], less than 1 µg/mL; in experiment [7], less than 1 µg/mL. Besides, the MIC in experiment [8] was less than 1 µg/mL. For the same compound, the IC50 in experiment [6] was greater than 100 µg/mL.

In the case of `COc1cnc2ccc(=O)n(CCN(C)[C@H]3CC[C@H]4[C@@H](C3)OC(=O)N4c3ccc4c(n3)NC(=O)CO4)c2c1` [Compound 51, 1-(2-{[(3aS,6S,7aR)-2-oxo-3-{3-oxo-2H,3H,4H-pyrido[3,2-b][1,4]oxazin-6-yl}-octahydro-1,3-benzoxazol-6-yl](methyl)amino}ethyl)-7-methoxy-1,2-dihydro-1,5-naphthyridin-2-one], the MIC in experiment [1] is 1 to 10 µg/mL (≈ 1.92 to 19.2 µM); in experiment [2], 1 to 10 µg/mL (≈ 1.92 to 19.2 µM); in experiment [3] it was 1 to 10 µg/mL (≈ 1.92 to 19.2 µM); in experiment [4] it was 1 to 10 µg/mL (≈ 1.92 to 19.2 µM); in experiment [5], less than 1 µg/mL; in experiment [7], less than 1 µg/mL. For the same compound, the MIC in experiment [8] was less than 1 µg/mL. Besides, in experiment [6], the IC50 is greater than 100 µg/mL.

As for `CSc1ncc2ccc(=O)n(CCN[C@H]3CC[C@H]4[C@@H](C3)OC(=O)N4c3ccc4c(n3)NC(=O)CO4)c2n1` [Compound 53, (3aS,6S,7aR)-6-({2-[2-(methylsulfanyl)-7-oxo-7H,8H-pyrido[2,3-d]pyrimidin-8-yl]ethyl}amino)-3-{3-oxo-2H,3H,4H-pyrido[3,2-b][1,4]oxazin-6-yl}-octahydro-1,3-benzoxazol-2-one], the MIC in experiment [1] was 1 to 10 µg/mL (≈ 1.91 to 19.1 µM); in experiment [2] it was 10 to 100 µg/mL (≈ 19.1 to 191 µM); in experiment [3] it was 1 to 10 µg/mL (≈ 1.91 to 19.1 µM); in experiment [4], 10 to 100 µg/mL (≈ 19.1 to 191 µM); in experiment [5], 1 to 10 µg/mL (≈ 1.91 to 19.1 µM); in experiment [7], less than 1 µg/mL. Further, the MIC in experiment [8] fell in the range of 1 to 10 µg/mL (≈ 1.91 to 19.1 µM). In addition, the IC50 in experiment [6] was greater than 100 µg/mL.

For `CN(CCn1c(=O)ccc2ccc(OCCN)cc21)[C@@H]1CC[C@@H]2[C@@H](C1)OC(=O)N2c1ccc2c(n1)NC(=O)CO2` [Compound 54], the MIC was less than 1 µg/mL in experiment [1]; 1 to 10 µg/mL (≈ 1.82 to 18.2 µM) in experiment [2]; 1 to 10 µg/mL (≈ 1.82 to 18.2 µM) in experiment [3]; 1 to 10 µg/mL (≈ 1.82 to 18.2 µM) in experiment [4]; 1 to 10 µg/mL (≈ 1.82 to 18.2 µM) in experiment [5]; less than 1 µg/mL in experiment [7]. Further, the MIC in experiment [8] is less than 1 µg/mL. Also, in experiment [6], the IC50 is greater than 100 µg/mL.

Take `O=C1COc2cnc(N3C(=O)O[C@@H]4C[C@@H](NCCn5c(=O)cnc6cc(F)c(F)cc65)CC[C@@H]43)nc2N1` [Compound 65, 1-(2-{[(3aS,6S,7aR)-2-oxo-3-{7-oxo-6H,7H,8H-pyrimido[5,4-b][1,4]oxazin-2-yl}-octahydro-1,3-benzoxazol-6-yl]amino}ethyl)-6,7-difluoro-1,2-dihydroquinoxalin-2-one]: the MIC in experiment [1] was 1 to 10 µg/mL (≈ 1.95 to 19.5 µM); in experiment [2] it was 10 to 100 µg/mL (≈ 19.5 to 195 µM); in experiment [3], 10 to 100 µg/mL (≈ 19.5 to 195 µM); in experiment [4], 1 to 10 µg/mL (≈ 1.95 to 19.5 µM); in experiment [5], 1 to 10 µg/mL (≈ 1.95 to 19.5 µM); in experiment [7], less than 1 µg/mL. The MIC in experiment [8] was less than 1 µg/mL. Moreover, the IC50 in experiment [6] was greater than 100 µg/mL.

Regarding `O=C1COc2cnc(N3C(=O)O[C@H]4C[C@@H](NCCn5c(=O)cnc6cc(F)c(F)cc65)CC[C@@H]43)nc2N1` [Compound 66, 1-(2-{[(3aS,6S,7aS)-2-oxo-3-{7-oxo-6H,7H,8H-pyrimido[5,4-b][1,4]oxazin-2-yl}-octahydro-1,3-benzoxazol-6-yl]amino}ethyl)-6,7-difluoro-1,2-dihydroquinoxalin-2-one], the MIC in experiment [1] was 1 to 10 µg/mL (≈ 1.95 to 19.5 µM); in experiment [2], greater than 100 µg/mL; in experiment [3], 1 to 10 µg/mL (≈ 1.95 to 19.5 µM); in experiment [4] it was 10 to 100 µg/mL (≈ 19.5 to 195 µM); in experiment [5], 1 to 10 µg/mL (≈ 1.95 to 19.5 µM); in experiment [7], less than 1 µg/mL. The MIC in experiment [8] was less than 1 µg/mL. Moreover, the IC50 in experiment [6] was greater than 100 µg/mL.

Turning to `N#Cc1ccc(-c2cccc(CN[C@H]3CC[C@H]4[C@H](C3)OC(=O)N4c3ccc4c(n3)NC(=O)CO4)c2)nc1` [Compound 71, 6-[3-({[(3aS,6S,7aS)-2-oxo-3-{3-oxo-2H,3H,4H-pyrido[3,2-b][1,4]oxazin-6-yl}-octahydro-1,3-benzoxazol-6-yl]amino}methyl)phenyl]pyridine-3-carbonitrile], the MIC is less than 1 µg/mL in experiment [1]; 10 to 100 µg/mL (≈ 20.1 to 201 µM) in experiment [2]; 1 to 10 µg/mL (≈ 2.01 to 20.1 µM) in experiment [3]; 1 to 10 µg/mL (≈ 2.01 to 20.1 µM) in experiment [4]; 1 to 10 µg/mL (≈ 2.01 to 20.1 µM) in experiment [5]; less than 1 µg/mL in experiment [7]. The MIC in experiment [8] lay in the range of 1 to 10 µg/mL (≈ 2.01 to 20.1 µM). Besides, the IC50 in experiment [6] fell in the range of 10 to 100 µg/mL (≈ 20.1 to 201 µM).
